Data: US11149055B2, “Crystal form of lanosterol prodrug compound and application thereof” (GUANGZHOU OCUSUN OPHTHALMIC BIOTECHNOLOGY CO., LTD., priority 2018, dated 2021)
Read-outs that look alike come from different tables or passages of the source.

Key:
[1] = Pre-stability experiment (influencing factors: high temperature, high humidity, light); type: physicochemical; conditions: 60° C. open; relative humidity 92.5% open; light 1 ICH; up to 10 days
Protocol: The crystal form A of the compound of formula (I) was placed under the following 3 conditions and tested for appearance, XRPD, content and related substances at different time points.
10 mg of the crystal form A of the compound of formula (I) was accurately weighted and placed in a sample bottle, and then spread to form a thin layer. The samples were placed under 60° C., 92.5% RH, the mouth of the bottle was directly wrapped with aluminum foil which was punctured to get some small holes to ensure that the sample can fully contact the ambient air. The samples were placed respectively in a dry box and a glass jar containing saturated potassium nitrate solution. The illuminated sample (open, not covered with aluminum foil) and the illuminated control sample (open, the sample bottle was entirely covered with aluminum foil) were placed in the light box. 2 parts of the sample were weighted at each time point as the formal test sample. In addition, about 5 mg of the crystal form A of the compound of formula (I) was weighted for XRPD testing; the sample bottle was wrapped with aluminum foil which was punctured to get some small holes; the samples were also placed in the corresponding drying box and the glass jar containing saturated potassium nitrate solution. […]

[2] = Hygroscopicity study by Dynamic Vapor Sorption (DVS); type: physicochemical; conditions: 25° C. and 80% RH
Protocol: Dynamic Vapor Sorption (DVS)
Detection method: samples (10 mg to 20 mg) were placed in a DVS sample tray for testing.
Equilibrium: dm/dt: 0.01%/min: (Shortest: 10 min, longest: 180 min)
RH (%) gradient for testing: 10%
RH (%) gradient range for testing: 0% to 90% to 0%
The hygroscopicity was evaluated using the following scales:
SMS DVS Advantage Dynamic Vapor Sorption System
10 to 15 mg of the crystal form A of the compound of formula (I) was placed in the DVS sample tray for testing.

[3] = Penetration of ocular drugs in the body and conversion to lanosterol (aqueous humor concentration after eye drops); type: in vivo, New Zealand white rabbit; conditions: for AUC: New Zealand white, rabbit; for Penetration into the aqueous humor: from the cornea or through other routes
Protocol: In this study, New Zealand white rabbits (body weight was more than 2 kg, aged more than 12 weeks) were used as experimental animals. Each compound was studied in two New Zealand white rabbits. Each rabbit was instilled with 50 μL of eye drops in each eye, three eyes were used to collect aqueous humor samples and one eye was used as a backup. The formula of the eye drops was 1.2% hydroxypropyl methylcellulose (E5 size), 20.5% poloxamer (P407 size), 1.6% poloxamer (P188 size), the concentration of the compound was 5 mM, and the eye drops were homogeneous suspensions. After the eye drops were dripped into the rabbit's eyes, the anterior aqueous humor was collected 0.5, 2, 4 and 6 hours after administration. The volume of each sample was not more than 50 μL. Each animal was given mild anesthesia before collecting samples. Three samples were collected at each time point. The collected aqueous humor samples were stored in dry ice immediately after collection or stored in a refrigerator at −80±10° C. After the sample collection, the animals were euthanized. The concentration of the compound in each sample was determined using a triple quadrupole mass spectrometer (API 4000). Tables 3 and 4 show the DMPK determination conditions in vivo; Tables 5 and 6 show the drug concentration in the aqueous humor after compound lanosterol (parent drug) and the prodrug compound were dripped into eyes ([…]).

[4] = test system: ultraviolet-induced New Zealand rabbit cataract model; test: Lens transparency test in vitro, ultraviolet-induced cataract model; type: in vivo; conditions: after 42 days of administration, left eye as self-control
Protocol: (§1) Adult New Zealand rabbits 2.0-2.5 kg, normal grade, male and female, a total of 25.
(§2) The experimental rabbits were randomly divided into 5 groups with 5 rabbits per group.
(§3) 2) Model control group (MC): 313 nm UV irradiation for 24 hours to make model, then drug-free blank eye drops were dripped into the right eye 3 times every day for 42 days.
(§4) 3) Positive control group (PC): 313 nm UV irradiation for 24 hours to make model, then Kary Uni eye drops (Santen Pharmaceutical Co., Ltd in Japan) were dripped into the right eye 3 times every day for 42 days.
(§5) 4) Lanosterol eye drops treatment group (LT): 313 nm UV irradiation for 24 hours to make model, then lanosterol eye drops were dripped into the right eye 3 times every day for 42 days.
(§6) 5) Lanosterol prodrug 026 eye drops treatment group (026): 313 nm UV irradiation for 24 hours to make model, then the lanosterol prodrug 026 eye drops were dripped into the right eye 3 times every day for 42 days.
2) Lens transparency test in vitro: on the last day, the animal's eyeball was dissected, the lens containing the capsule was completely separated, and the lens was placed on a grid paper (2.12×2.12 mm). The photographs show the sharpness of the grid photographed through the lens.

[5] = test system: lens glutathione peroxidase (GSH-PX) activity; test: Lens glutathione peroxidase (GSH-PX) activity assay, ultraviolet-induced cataract model; type: in vivo, New Zealand rabbit; conditions: after 42 days of administration
Protocol: as §1, §2, §3, §4, §5, §6
(§7) 3) Glutathione peroxidase (GSH-PX) activity assay: GSH-PX activity of the isolated rabbit lens in each group was determined by the method provided in the specification of GSH-PX activity detection kit (Nanjing Jiancheng Bioengineering Institute). The experimental data were analyzed by One-Way ANOVA with SPSS statistical software. The LSD method was used to compare the groups, and the statistical difference level was p<0.05.

[6] = test system: sodium selenite-induced neonatal New Zealand rabbit cataract model; test: Lens transparency test in vitro, sodium selenite-induced cataract model; type: in vivo; conditions: after 42 days of administration, left eye as self-control
Protocol: (§8) P7 days old neonatal New Zealand rabbits, normal grade, and 5 young rabbits per litter were breast-fed with a mother rabbit.
(§9) The experimental young rabbits were randomly divided into 5 groups with 5 rabbits per group.
(§10) 2) Model control group (MC): in the P10 day, the young rabbits were injected subcutaneously with sodium selenite solution (in physiological saline) at a dose of 20 μmol/kg body weight, and after the P15 day, drug-free blank eyes drops were dripped into the right eye 3 times every day for 42 days.
as §10, with “3) Positive” for “2) Model”, “(PC):” for “(MC):”, “Kary Uni eye” for “drug-free blank eyes”, “drops (Santen Pharmaceutical Co., Ltd in Japan)” for “drops”
as §10, with “4) Lanosterol eye drops treatment” for “2) Model control”, “(LT):” for “(MC):”, “lanosterol eye” for “drug-free blank eyes”, “days. […]” for “days.”

[7] = test system: lens glutathione peroxidase (GSH-PX) activity; test: Lens glutathione peroxidase (GSH-PX) activity assay, sodium selenite-induced cataract model; type: in vivo, New Zealand rabbit; conditions: after 42 days of administration
Protocol: as §8, §9, §10
as §10, with “3) Positive” for “2) Model”, “(PC):” for “(MC):”, “Kary Uni eye” for “drug-free blank eyes”, “drops (Santen Pharmaceutical Co., Ltd in Japan)” for “drops”
as §10, with “4) Lanosterol eye drops treatment” for “2) Model control”, “(LT):” for “(MC):”, “lanosterol eye” for “drug-free blank eyes”
as §10, with “5) Lanosterol prodrug 026 eye drops treatment” for “2) Model control”, “(026, the compound of formula (I)):” for “(MC):”, “lanosterol prodrug 026 eye” for “drug-free blank eyes”
as §7, with “was” for “were”

[8] = test system: sodium selenite-induced neonatal New Zealand rabbit cataract model; test: Slit lamp observation, sodium selenite-induced cataract model; type: in vivo; conditions: eye drops right eye 3 times every day for 42 days
Protocol: as §8, §9, §10
as §10, with “3) Positive” for “2) Model”, “(PC):” for “(MC):”, “Kary Uni eye” for “drug-free blank eyes”, “drops (Santen Pharmaceutical Co., Ltd in Japan)” for “drops”
as §10, with “4) Lanosterol eye drops treatment” for “2) Model control”, “(LT):” for “(MC):”, “lanosterol eye” for “drug-free blank eyes”, “days. […]” for “days.”

[9] = test system: ultraviolet-induced New Zealand rabbit cataract model; test: Slit lamp observation, ultraviolet-induced cataract model; type: in vivo; conditions: ultraviolet model (313 nm UV 24 hours); eye drops right eye 3 times every day for 42 days
Protocol: as §1, §2, §3, §4, §5, §6

| Compound | Crystal form stability (appearance, XRPD, content, related substances) [1] | Hygroscopic weight gain (ΔW) [2] | Hygroscopicity scale [2] | AUC ([3]; aqueous humor, topical, 250 nmol per eye, 250 nmol lanosterol dripped into each eye, read-out: AUC (exposure amount) of lanosterol in the aqueous humor) | Penetration into the aqueous humor ([3]; eye drops) | Lens transparency in vitro of administered right eye [4] | Effect on lens GSH-PX activity compared with the other treatments [5] | Lens GSH-PX activity vs MC group [5] | Lens transparency in vitro of administered right eye [6] | Effect on lens GSH-PX activity compared with the other treatments [7] | Lens GSH-PX activity vs MC group [7] | Cataract symptoms by slit lamp observation, after vs before administration [8] | Cataract symptoms by slit lamp observation, after vs before administration [9] | Average concentration of the compound of formula (I) in the aqueous humor ([3]; 250 nmol the compound of formula (I) dripped into each eye, analyte prodrug, 0.5 hour) | Average concentration of the compound of formula (I) in the aqueous humor ([3]; 250 nmol the compound of formula (I) dripped into each eye, analyte prodrug, 2 hour) | Average concentration of the compound of formula (I) in the aqueous humor ([3]; 250 nmol the compound of formula (I) dripped into each eye, analyte prodrug, 4 hour) | Average concentration of the compound of formula (I) in the aqueous humor ([3]; 250 nmol the compound of formula (I) dripped into each eye, analyte prodrug, 6 hour) | AUC ([3]; in vivo, 250 nmol the compound of formula (I) dripped into each eye, analyte prodrug, read-out: AUC (exposure amount) of the compound of formula (I) in the aqueous humor) | Conversion into the parent drug lanosterol ([3]; during the infiltration process) | Lanosterol concentration and exposure in the aqueous humor compared with lanosterol eye drops ([3]; eye drops) |
| --- | --- | --- | --- | --- | --- | --- | --- | --- | --- | --- | --- | --- | --- | --- | --- | --- | --- | --- | --- | --- |
| CC(C)=CCC[C@@H](C)[C@H]1CC[C@@]2(C)C3=C(CC[C@]12C)[C@@]1(C)CC[C@H](OC(=O)c2ccccc2O)C(C)(C)C1CC3 (some centres unmarked) | the crystal form has not changed after the experiment, and its stability is good | 0.747% | slightly hygroscopic | – | – | – | – | – | – | – | – | – | – | – | – | – | – | – | – | – |
| CC(C)=CCC[C@@H](C)[C@H]1CC[C@@]2(C)C3=C(CC[C@]12C)[C@@]1(C)CC[C@H](O)C(C)(C)[C@@H]1CC3 [Lanosterol] | – | – | – | 1.78 µM·h | capable of penetrating into the aqueous humor | no significant change in lens transparency | significantly lower than that of 026 and Kary Uni | no statistical difference compared to the MC group | no significant change in lens transparency | significantly lower than that of 026 and Kary Uni | no statistical difference compared to the MC group | no evident change | no evident change | – | – | – | – | – | – | – |
| CC(C)=CCC[C@@H](C)[C@H]1CC[C@@]2(C)C3=C(CC[C@]12C)[C@@]1(C)CC[C@H](OC(=O)c2ccccc2O)C(C)(C)C1CC3 (some centres unmarked) [the compound of formula (I)] | – | – | – | – | capable of penetrating into the aqueous humor | significantly higher than that of the left eye | better than that of Kary Uni | capable of increasing the GSH-PX activity of the lens | significantly higher than that of the left eye | better than that of Kary Uni | capable of increasing the GSH-PX activity of the lens | cataract symptoms were significantly reduced | cataract symptoms were significantly reduced | 41.0 nM | 33.3 nM | 25.5 nM | BQL | 0.124 µM·h | capable of converting into the parent drug lanosterol | higher concentration and exposure of lanosterol in the aqueous humor |
